Test systems include A498; A549; ACHN; DU-145; HL-60; HOP-62; HT-29; MDA-MB-435; Malme-3M; OVCAR-3; RXF 393; SF-268; SF-295; SK-MEL-28; SK-MEL-2; SNB-19; SR; SW-620; UACC-257; UACC-62.
Experiment in all cases: NCI tumour cell line growth inhibition, 48 h

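1) Cells in 96-well plates. 2) Compound, 48 h, 5 concentrations. 3) Linear interpolation between surrounding doses. 4) Unreached endpoint = highest concentration. The concentration for 50% growth inhibition is given as GI50.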 Activity calls are given as the source filed them. No stated cut-off is given here; in the data, active = GI50 up to about 1.1 µM and inactive = higher.

With `CCC/C(Cl)=N\OC(=O)Nc1ccc(Br)cc1`, the GI50 in the assay with A498 is 16.9 µM (inactive); with A549 it was 18.4 µM (inactive); in the assay on ACHN it was 5.05 µM (inactive); in the assay on DU-145 it was 13.8 µM (inactive); in the assay on HL-60 it was 1.99 µM (inactive); with HOP-62, 20.9 µM (inactive). Besides, the GI50 in the assay with HT-29 is 17.7 µM (inactive); in the assay with MDA-MB-435, 14.5 µM (inactive); in the assay with Malme-3M, 5.73 µM (inactive); in the assay on OVCAR-3 it was 6.22 µM (inactive); in the assay with RXF 393 it was 16.6 µM (inactive); with SF-268, 17.7 µM (inactive). In addition, the GI50 is 14.9 µM (inactive) with SF-295; 18.2 µM (inactive) in the assay with SK-MEL-28; 15 µM (inactive) in the assay on SK-MEL-2; 29.5 µM (inactive) in the assay with SNB-19; 5.68 µM (inactive) with SR; 2.36 µM (inactive) with SW-620. Besides, the GI50 with UACC-257 was 13.5 µM (inactive); in the assay with UACC-62, 18.9 µM (inactive).
For `Cc1ccc(S(=O)(=O)Oc2cc(S(=O)(=O)O)cc3cc(S(=O)(=O)O)cc(N)c23)cc1`, the GI50 in the assay with A498, in the assay with A549, in the assay on ACHN, with DU-145, with HL-60 and with HOP-62 was > 100 µM (inactive) throughout. In addition, the GI50 in the assay on HT-29, in the assay with MDA-MB-435, in the assay with Malme-3M, in the assay with OVCAR-3, in the assay with RXF 393 and in the assay on SF-268 was > 100 µM (inactive) throughout. The GI50 with SF-295, with SK-MEL-28, in the assay with SK-MEL-2, with SNB-19, in the assay on SR and in the assay on SW-620 was > 100 µM (inactive) each time. Further, the GI50 in the assay on UACC-257 and with UACC-62 was > 100 µM (inactive) each time.
Consider `O=C(ON=C1c2ccccc2C(Br)C(Br)c2ccccc21)c1ccccc1` (stereo not given), for which the GI50 in the assay on A498 was 25.2 µM (inactive); with A549, 20.6 µM (inactive); in the assay with ACHN it was 17.7 µM (inactive); in the assay on DU-145 it was 17.5 µM (inactive); in the assay on HL-60, 0.59 µM (active); in the assay on HOP-62 it was 12.7 µM (inactive). In addition, the GI50 is 17.1 µM (inactive) with HT-29; 17.3 µM (inactive) with MDA-MB-435; 20.7 µM (inactive) in the assay on Malme-3M; 14.8 µM (inactive) in the assay on OVCAR-3; 14.1 µM (inactive) with RXF 393; 20.7 µM (inactive) with SF-268. The GI50 was 18.5 µM (inactive) in the assay with SF-295; 18.2 µM (inactive) with SK-MEL-28; 30.2 µM (inactive) in the assay with SK-MEL-2; 20.7 µM (inactive) in the assay with SNB-19; 3.09 µM (inactive) with SR; 8.49 µM (inactive) in the assay on SW-620. The GI50 is 15.6 µM (inactive) in the assay on UACC-257 and 16.7 µM (inactive) with UACC-62.
On to `Cc1cccc2c1C/C(=C\c1cccc(C)c1C(=O)O)C2=O`, for which the GI50 in the assay with A498, with A549, in the assay with ACHN, with DU-145, in the assay on HL-60 and with HOP-62 was > 100 µM (inactive) throughout. For the same compound, the GI50 in the assay on HT-29 is 70.1 µM (inactive); in the assay with MDA-MB-435 it was > 100 µM (inactive); in the assay on Malme-3M, > 100 µM (inactive); in the assay with OVCAR-3, > 100 µM (inactive); in the assay on RXF 393, > 100 µM (inactive); in the assay with SF-268, > 100 µM (inactive). In addition, the GI50 with SF-295 is > 100 µM (inactive); in the assay with SK-MEL-28, > 100 µM (inactive); with SK-MEL-2, > 100 µM (inactive); in the assay with SNB-19, > 100 µM (inactive); in the assay on SR it was 54.7 µM (inactive); in the assay on SW-620, > 100 µM (inactive). The GI50 in the assay on UACC-257 and with UACC-62 was > 100 µM (inactive) in each case.
Consider `O=C(c1ccccc1)N(C(=O)c1ccccc1)c1nc(SCc2ccccc2)ns1`, for which the GI50 was 27.9 µM (inactive) in the assay with A498; 38.5 µM (inactive) in the assay on A549; 41.6 µM (inactive) in the assay on ACHN; 30.9 µM (inactive) in the assay on DU-145; 21.8 µM (inactive) with HL-60; 32.9 µM (inactive) in the assay on HOP-62. For the same compound, the GI50 is 25.5 µM (inactive) in the assay on HT-29; 29.4 µM (inactive) in the assay with MDA-MB-435; 22.7 µM (inactive) in the assay on Malme-3M; 22.3 µM (inactive) in the assay with OVCAR-3; 31.7 µM (inactive) with RXF 393; 30.8 µM (inactive) with SF-268. Further, the GI50 is 25.1 µM (inactive) with SF-295; 30.8 µM (inactive) with SK-MEL-28; 21.9 µM (inactive) with SK-MEL-2; 50.6 µM (inactive) with SNB-19; 22.2 µM (inactive) in the assay with SR; 37.2 µM (inactive) in the assay on SW-620. Also, the GI50 in the assay with UACC-257 is 22.2 µM (inactive); in the assay with UACC-62 it was 17.1 µM (inactive).
Regarding `COc1cc2c(cc1OCCCC(=O)Nc1cc(C(=O)Nc3cc(C(=O)NCCCN(C)C)n(C)n3)n(C)n1)N=CC1CCCN1C2=O` (stereo not given), the GI50 with A498 is 0.411 µM (active); in the assay with A549, 36.1 µM (inactive); with ACHN, 16.2 µM (inactive); with DU-145, 16.4 µM (inactive); in the assay with HL-60, 15.2 µM (inactive); with HOP-62, 20.1 µM (inactive). The GI50 in the assay on HT-29 was 17 µM (inactive); in the assay on MDA-MB-435, 16.8 µM (inactive); in the assay with Malme-3M, 17.2 µM (inactive); with OVCAR-3, 18.5 µM (inactive); in the assay on RXF 393, 16.7 µM (inactive); in the assay on SF-268, 18.3 µM (inactive). The GI50 is 36.1 µM (inactive) with SF-295; 16.7 µM (inactive) in the assay on SK-MEL-28; 16.4 µM (inactive) in the assay with SK-MEL-2; 12.6 µM (inactive) in the assay with SNB-19; 12.9 µM (inactive) in the assay on SR; 15.2 µM (inactive) in the assay on SW-620. For the same compound, the results for the GI50 in the assay with UACC-257 and with UACC-62 were 17.8 µM (inactive) and 20.1 µM (inactive), respectively.
On to `CC(/C=N/N(C)C1=NCCCN1)=N/N(C)C1=NCCCN1`, for which the GI50 with A498, in the assay with A549, in the assay with ACHN, with DU-145, in the assay on HL-60 and with HOP-62 was > 100 µM (inactive) throughout. In addition, the GI50 in the assay on HT-29, in the assay with MDA-MB-435, with Malme-3M, in the assay on OVCAR-3, in the assay on RXF 393 and with SF-268 was > 100 µM (inactive) each time. Further, the GI50 with SF-295, with SK-MEL-28, with SK-MEL-2, in the assay with SNB-19, in the assay on SR and with SW-620 was > 100 µM (inactive) in each case. For the same compound, the GI50 in the assay with UACC-257 and in the assay on UACC-62 was > 100 µM (inactive) throughout.
`Cc1cccc(C)c1N1C(=O)C2c3[nH]c4ccccc4c3C3CCC(C(C)(C)C)CC3C2C1=O` (stereo not given): the GI50 was 15.7 µM (inactive) in the assay on A498; 12.3 µM (inactive) with A549; 12.4 µM (inactive) in the assay on ACHN; 8.45 µM (inactive) in the assay on DU-145; 12.8 µM (inactive) in the assay with HL-60; 2.43 µM (inactive) in the assay with HOP-62. Moreover, the GI50 is 10.3 µM (inactive) in the assay with HT-29; 11.4 µM (inactive) with MDA-MB-435; 14.4 µM (inactive) in the assay with Malme-3M; 13.7 µM (inactive) in the assay on OVCAR-3; 8.97 µM (inactive) with RXF 393; 14.4 µM (inactive) in the assay with SF-268. For the same compound, the GI50 in the assay on SF-295 is 17.3 µM (inactive); in the assay on SK-MEL-28, 19.9 µM (inactive); in the assay on SK-MEL-2, 15.6 µM (inactive); with SNB-19, 62.4 µM (inactive); in the assay on SR it was 9.91 µM (inactive); in the assay with SW-620, 5.74 µM (inactive). The values for the GI50 with UACC-257 and in the assay on UACC-62 were 16.5 µM (inactive) and 16.1 µM (inactive), respectively.
For the compound `O=C1N/C(=N/N=C/c2ccccc2)N/C1=C\c1cccs1`, the GI50 in the assay with A498 was 13 µM (inactive); in the assay on A549 it was 25.6 µM (inactive); in the assay on ACHN, 15.9 µM (inactive); with DU-145, 18.5 µM (inactive); with HL-60 it was 12.3 µM (inactive); in the assay with HOP-62, 18.3 µM (inactive). Also, the GI50 is 19.1 µM (inactive) in the assay with HT-29; 7.52 µM (inactive) in the assay with MDA-MB-435; 8.99 µM (inactive) with Malme-3M; 15.4 µM (inactive) with OVCAR-3; 17.7 µM (inactive) in the assay on RXF 393; 9.89 µM (inactive) in the assay on SF-268. Moreover, the GI50 was 17.4 µM (inactive) in the assay on SF-295; 15.8 µM (inactive) in the assay on SK-MEL-28; 8.57 µM (inactive) in the assay with SK-MEL-2; 21.9 µM (inactive) with SNB-19; 28.2 µM (inactive) in the assay with SR; 11.7 µM (inactive) in the assay on SW-620. For the same compound, the GI50 was 30.5 µM (inactive) with UACC-257 and 20.1 µM (inactive) in the assay with UACC-62.
